The test system of one data set is HCMV. Briefly: Plaque number reduction assay, HCMV on HFFF. It counts as cell-based, Human cytomegalovirus strain Toledo.
The test system of a further data set is HAd4. In words: Plaque number reduction assay, HAd4 on A549. Format: cell-based, Human adenovirus type 4 (HAdV-4) strain RI-6.
The subject of another data set is HSV-1. Briefly: Plaque number reduction assay, HSV-1 on HFFF. Format: cell-based, Herpes simplex virus type 1 strain 17.
The test system of data set [1] is p21^WAF1 protein in MCF-7 cells. In words: Induction of p21^WAF1 protein in MCF-7 cells (immunoblotting). It counts as cell-based, human. As to the method:
(§1) (a) DO-1, DO-2 and 1801 monoclonal antibodies recognise the N-terminal region of p53 protein, monoclonal antibodies DO-11 and DO-12 recognise different epitopes in the core domain of p53 protein, monoclonal antibodies Bp53-10 and Pab421 recognise the C-terminal region of p53 protein. (b) Monoclonal antibody 118 recognises p21^WAF1.
(§2) For direct immunoblotting, total cellular protein lysates were prepared by harvesting cells in hot Laemmli electrophoresis sample buffer. Proteins were then separated by SDS-polyacrylamide gel electrophoresis (SDS-PAGE) on 10% gel and transferred onto a nitrocellulose membrane in Bio.Rad Mini Trans-Blott Electrophoretic Transfer Cell for 2 hrs at 4° C. applying 150 mA in transfer buffer ([…], 190 mM glycine and 20% methanol). Prestained molecular weight markers (Bio-Rad) were run in parallel. The blotted membranes were blocked in 5% milk and 0.1% Tween 20 in PBS for 2 hrs and probed overnight with monoclonal antibodies. After washing 3 times in PBS plus 0.1% Tween 20, peroxidase conjugated rabbit anti-mouse immunoglobulin antiserum (Dako, Denmark) diluted 1:1000 was used as the secondary antibody. To visualise peroxidase activity, ECL reagents from […] were used according to the manufacturer instructions.
MCF7-DDp53 cell line was derived from MCF-7 parental cell line by stable […] with plasmid pCMVneonDDp53 coding for dominant negative truncated mouse p53 protein including amino acid residues 1-14 and 302-390 under the control of at the CMV promoter. The control cell line MCF-7neo was derived by transfecting MCF-7 cells with pCMVneo vector. Transfections were performed using the Effectene transfection reagent (QIAGEN, Germany) as recommended by the supplier. Stable transfectants were selected at 2 mg/ml G418 sulphate (Life Technologies). The expression of Ddp53 miniprotein in MCF-7Ddp53 cell line has been examined by immunoblotting with Bp53-10 monoclonal antibody. Independently isolated MCF-7Dp53 clones 9, 12 and 14 expressing high levels of Ddp53 miniprotein and MCF-7-neo clones 3, 4 and 7 were used. […]
A general note: A western blot detects proteins with antibodies after separation by electrophoresis.

The next data set has as its system SV40 large T-antigen. Format: cell-based.
The next data set addresses CDK9/cyclin T (Homo sapiens, UniProt P50750). In words: CDK inhibition assay, CDK9/cyclin T.
The subject of another data set is HSV-1-deltaTK. In words: Plaque number reduction assay, HSV-1-deltaTK on HFFF. It counts as cell-based. The settings on record: HSV-1 thymidine kinase (TK) deletion mutant on HFFF.
For data set [2], the system named is CMV promoter (plasmid pCMV-lacZ). In words: β-galactosidase expression from transiently transfected pCMV-lacZ in MCF-7 and T47D. The settings on record: transiently transfected MCF-7 and T47D (FIG. 9).
Data set [3] concerns p53 protein in MCF-7 cells expressing wild-type p53. In words: Induction of p53 protein in MCF-7 cells (immunoblotting). Format: cell-based, human. The method, then: as §1, §2
First, we determined appropriate concentration of 103 and 105 for our experiments. The MCF-7 (wt p53) cells were treated for 12 hrs with increasing concentrations of 105 ranging from 1 to 100 μM and analysed for p53 protein expression using monoclonal antibody DO-1 (FIG. 3A). […] As shown at FIG. 3C the level of protein expression induced by 5 μM 105 was not substantially different from expression induced by 50 μM concentration was selected for further experiments. Second, the periods of time 6, 12 and 24 hrs were chosen, since the level of protein expression reached a steady state. We analysed the expression of p53 protein in MCF-7 (wt p53), BT549 (mut p53) and BT474 (mut p53) breast cancer cell lines, in HT29 (mut p53) colorectal cancer cell line and in ostaosarcoma cell line HOS (mut p53). […] No induction of p53 was observed following exposure of BT549 and HOS cell lines, expressing mutant p53, to 5 μM 105 for 6, 12 and 24 hrs. No correlation was observed between the sensitivity of cell lines to 105 and the presence of wild-type or mutant p53.

For data set [4], the system named is cervical carcinoma cells HELA. Briefly: In vitro cytotoxic activity (Calcein AM, 72 hours), HELA. The settings on record: Homo sapiens, read-out: Cytotoxicity IC50 HeLa.
Data set [5] has as its system A549 lung adenocarcinoma xenograft. Briefly: In vivo anticancer activity, human xenograft model of A549 lung adenocarcinoma. In general terms: In xenograft studies the graft and the host belong to different species.
For a further data set, the system named is HSV-2. Briefly: Plaque number reduction assay, HSV-2 on HFFF. It counts as cell-based, HSV-2 strain HG52.
Data set [6] deals with p53-responsive reporter pRGCΔfoslacZ in human melanoma cell line Arn8. In words: p53-dependent transcriptional activity, β-galactosidase reporter in Arn8 cells.
The subject of data set [7] is p53 protein in BT549 (mut p53) breast cancer cell line. Briefly: p53 protein expression in BT549 cells (immunoblotting). Particulars: BT549 (mutant p53), 5 μM, 6, 12 and 24 hrs. It counts as cell-based, human. As to the method: as §1
For direct immunoblotting, total cellular protein lysates were prepared by harvesting cells in hot Laemmli electrophoresis sample buffer. Proteins were then separated by SDS-polyacrylamide gel electrophoresis (SDS-PAGE) on 10% gel and transferred onto a nitrocellulose membrane in Bio.Rad Mini Trans-Blott Electrophoretic Transfer Cell for 2 hrs at 4° C. applying 150 mA in transfer buffer ([…], 190 mM glycine and 20% methanol). Prestained molecular weight markers (Bio-Rad) were run in parallel. […]
First, we determined appropriate concentration of 103 and 105 for our experiments. The MCF-7 (wt p53) cells were treated for 12 hrs with increasing concentrations of 105 ranging from 1 to 100 μM and analysed for p53 protein expression using monoclonal antibody DO-1 (FIG. 3A). […] We analysed the expression of p53 protein in MCF-7 (wt p53), BT549 (mut p53) and BT474 (mut p53) breast cancer cell lines, in HT29 (mut p53) colorectal cancer cell line and in ostaosarcoma cell line HOS (mut p53). […]

Setting [8] is: MCF7 cells treated for 24 h, immunoblot (FIG. 2).

Consider one compound from patent US9023857B2, “Substituted 6-(2-aminobenzylamino)purine derivatives, their use as medicaments and preparations containing these compounds” (Univerzita Palackeho V Olomouci, priority 2009, dated 2015).

Entries after “also recorded” stand apart in the source; their conditions may differ.

CDK9/cyclin T, sequence (P50750 whole entry, species assumed): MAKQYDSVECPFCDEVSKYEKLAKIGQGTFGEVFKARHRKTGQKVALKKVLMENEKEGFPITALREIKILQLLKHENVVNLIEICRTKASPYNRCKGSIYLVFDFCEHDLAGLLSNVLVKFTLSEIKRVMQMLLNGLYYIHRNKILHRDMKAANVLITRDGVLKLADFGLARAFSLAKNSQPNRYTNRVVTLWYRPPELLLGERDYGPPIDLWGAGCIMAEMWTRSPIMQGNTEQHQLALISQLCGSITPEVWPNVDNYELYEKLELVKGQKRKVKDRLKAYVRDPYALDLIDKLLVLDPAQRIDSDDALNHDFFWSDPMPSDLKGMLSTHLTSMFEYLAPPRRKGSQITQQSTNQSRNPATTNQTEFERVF
CDK9/cyclin T, sequence (O60563 whole entry partner, species assumed): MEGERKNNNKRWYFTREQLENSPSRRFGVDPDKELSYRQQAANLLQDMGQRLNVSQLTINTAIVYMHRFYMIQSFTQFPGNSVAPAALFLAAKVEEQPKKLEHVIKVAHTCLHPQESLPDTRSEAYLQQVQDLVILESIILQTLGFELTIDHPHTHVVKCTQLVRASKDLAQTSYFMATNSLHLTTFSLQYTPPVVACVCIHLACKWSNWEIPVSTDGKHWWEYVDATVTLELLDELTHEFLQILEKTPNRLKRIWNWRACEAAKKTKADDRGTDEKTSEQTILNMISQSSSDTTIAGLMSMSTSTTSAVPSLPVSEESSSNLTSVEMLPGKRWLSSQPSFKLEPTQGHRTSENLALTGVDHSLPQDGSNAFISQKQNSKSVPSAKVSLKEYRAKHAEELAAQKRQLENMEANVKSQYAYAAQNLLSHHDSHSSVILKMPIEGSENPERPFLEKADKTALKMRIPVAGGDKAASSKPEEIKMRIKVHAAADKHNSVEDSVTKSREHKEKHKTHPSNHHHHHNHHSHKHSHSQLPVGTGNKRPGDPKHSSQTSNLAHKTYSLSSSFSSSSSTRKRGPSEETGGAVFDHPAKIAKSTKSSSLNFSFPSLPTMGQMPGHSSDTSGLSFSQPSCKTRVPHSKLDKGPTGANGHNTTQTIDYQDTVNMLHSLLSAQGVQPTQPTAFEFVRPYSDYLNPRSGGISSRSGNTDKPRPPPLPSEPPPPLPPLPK

Broadly, the IC50 is the concentration needed to halve the response being measured. Regarding `CCC(CO)Nc1nc(NCc2ccccc2N)c2ncn(C(C)C)c2n1` (centres unmarked) [Compound 105, 2-({6-[(2-aminobenzyl)amino]-9-isopropyl-9H-purin-2-yl}amino)butan-1-ol], the “inhibition of virus replication (in words)” value in the data set on HCMV was “equally sensitive”; in the data set on HAd4 it was “inhibited HAd4 replication; also recorded: profound effect”; in the data set with HSV-1, “inhibited replication”; with HSV-1-deltaTK it was “remained sensitive”; with HSV-2, “inhibited replication”. Moreover, the “p21^WAF1 level” value in [1] (setting [8]) is “Induction”. The “p21^WAF1 induction” value in data set [1] (MCF-7Ddp53 clones (dominant-negative Ddp53 miniprotein)) is given as “no p21^WAF1 induction”. For the same compound, the “time at which enhanced level of p21^WAF1 protein was observed” value in data set [1] (MCF-7 cells) turned out to be 12 h. The “level of large T-antigen” value in the data set with SV40 large T-antigen is recorded as “reduced level”. Also, the IC50 is 5 nM at CDK9/cyclin T and 2500 nM in data set [4]. In addition, the “expression from CMV promoter (β-galactosidase activity)” value in data set [2] was “inhibited expression”. The “tumor suppressor p53 level” value in data set [3] (setting [8]) is “Induction”. The “concentration shown to affect the level of p53 protein” value in data set [3] (MCF-7 (wt p53), 12 hrs, antibody DO-1) lay within 2 to 5 µM. Besides, the “accumulation of wild-type p53” value in data set [3] (MCF-7, 5 μM, 6, 12 and 24 hrs) is “significant accumulation”. Further, the “time at which induction of p53 protein was apparent” value in data set [3] (MCF-7 cells) was found to be 4 h. Moreover, in data set [5] (CD-1 SCID mice, orally twice daily 150 mg/kg, Days 1-3 and 7-9), the tolerability in animals entry is “good tolerability”. For the same compound, the tumor volume analysis entry in [5] (CD-1 SCID mice, orally twice daily 150 mg/kg, P=0.0409 versus vehicle) is “significantly smaller tumors”. In data set [5] (as printed in the A549 tumor volume paragraph), the mean survival time is on record as 15.4 days. For the same compound, the “blue-coloured cells (β-galactosidase activity, X-gal substrate)” value in data set [6] (Arn8 cells, 5 μM) was “about 25%”. Besides, the “total β-galactosidase activity, colorimetric assay” value in data set [6] (Arn8 cells, 12 and 24 hours after treatment) is reported as “strong activity”. Also, the “Max. β-Gal. Activtity Conc.” value in data set [6] (concentration inducing maximum of β-galactosidase activity (p53-responsive reporter)) was found to be 16 µM. In [7], the “induction of p53” value is “No induction”.
